Data taken from patent US20130030282A1, “SYNTHESIS AND CHARACTERIZATION OF NEAR IR FLUORESCENT MAGNETIC AND NON-MAGNETIC ALBUMIN NANOPARTICLES FOR BIOMEDICAL APPLICATIONS” (BAR ILAN UNIVERSITY, priority 2011, published 2013).

Assay: Stability against photobleaching of free CANIR and NIR fluorescent nanoparticles
Format: physicochemical
Conditions: illuminated continuously with a Xenon flash lamp for 20 minutes; λex 800 nm, λem 830 nm; intensity normalized
Method: Photobleaching is the irreversible light-induced destruction of the fluorophore, affected by factors such as oxygen, oxidizing or reducing agents, temperature, exposure time and illumination levels. For photobleaching experiments, the samples were diluted to 0.05M and λex was set at 800 nm and λem at 830 nm. Each of the samples was illuminated continuously, and fluorescence intensity was measured over a period of 20 minutes. The intensity values were normalized.
Photobleaching experiments were performed for the free CANIR dye and the CANIR-HSA nanoparticles, in order to examine their photostabillity. For the photobleaching experiments, the samples were diluted to 0.05M and λex was set at 800 nm and λem at 830 nm. Each of the samples was illuminated continuously, and fluorescence intensity was measured over a period of 20 minutes. Intensity values were normalized. […] The encapsulation of the dye probably protects the dye against reactive oxygen species thereby reducing the photobleaching.
FIG. 2 depicts the photostability of the CANIR-HSA nanoparticles (A) and free CANIR (B) as a function of time. Samples of CANIR containing HSA nanoparticles and free CANIR were illuminated with a Xenon flash lamp for 20 minutes as described above.

fluorescence intensity during illumination (photostability): decreases significantly
SMILES: CC1(C)C(=CC=C2CCCC(C=CC3=[N+](CCCCS(=O)(=O)[O-])c4ccccc4C3(C)C)=C2Sc2ccc(C(=O)O)cc2)N(CCCCS(=O)(=O)[O-])c2ccccc21.[Na+] [free CANIR]
